The values below come from patent publication US8450300B2 (priority 2009, dated 2013).

Where two headings read alike, the source gives them in different places.

The term MIC denotes the lowest concentration that inhibits growth of the organism.

Series [1] concerns S. aureus. In words: Reference broth microdilution susceptibility testing (CLSI M07-A8), Canadian isolates. As to conditions: for number of isolates inhibited: Staphylococcus aureus; for R rate: overall S. aureus population. The format is cell-based. The text has this: Methods: To determine a contemporary susceptibility (S) spectrum pattern, 153 GP isolates (123 S. aureus, 15 coagulase-negative staphylococci [CoNS] and 15 S. pyogenes [SPYO]) were collected from 5 Canadian medical centers between 2001 and 2006.
For orientation: In broth dilution the organism is exposed to a series of concentrations in liquid medium.

Series [2] has as its system WT isolates. In words: MIC with 10% human serum or adjusted medium pH. The series is classed as cell-based. The protocol:
(§1) CLSI broth microdilution (BMD) and anaerobic agar dilution (AD) methods were performed. Modifications of standard test methods included adding 10% human serum, adjusting the medium pH to 5, 6, and 8, and synergy was assessed by the checkerboard method.

The conditions of series [3]: cited from earlier work.
The subject of series [4] is WT isolates. Description: Single-step mutational rates to resistance. The series is classed as cell-based.
Series [5] has as its system Gram-positive (GP) species. In words: CLSI broth microdilution / anaerobic agar dilution MIC, spectrum study. The format is cell-based. As to conditions: all GP isolates. The protocol:
as §1

Series [6] deals with methicillin-resistant S. aureus (MRSA) strain USA 300. In words: Hollow fiber pharmacodynamic model, resistance potential. The series is classed as cell-based. The following applies: 600 mg q12h. How it is done:
A hollow fiber model was used to evaluate CEM-102 resistance potential in methicillin-resistant S. aureus (MRSA) strain USA 300 (Network of Antimicrobial Resistance in Staphylococcus aureus (NARSA), Chantilly, Va.). USA 300 is a highly virulent strain of MRSA and is the most common community-associated MRSA isolate in the USA. MIC values were determined in accordance with Clinical and Laboratory Standards Institute (CLSI).
The hollow fiber model comprised a two-compartment hollow fiber model (Louie et al. Antimicrob Agents Chemother 52:2486-2496(2008)) consisting of a volume of 15 mL in the central compartment, with multiple ports for the removal of broth, delivery of antibiotics, and collection of bacterial and antimicrobial samples. […] All experiments were performed in duplicate.
Hollow fibers contain 15 ml of media was prepared and inoculated with 10^6 colony forming units (CFU)/mL USA 300 bacteria. One of three different dosing regimens of […] was then applied to the fibers: (1) […] q12h; (2) 1200 mg/ml×2, followed by […], q12h; (3) 1500 mg/ml×2, followed by […], q12h.

Series [7] concerns E. brevis, M. catarrhalis and N. meningitidis. Description: CLSI MIC, spectrum study. The series is classed as cell-based. How it is done:
as §1

The test system of a further series is GN species. In words: CLSI MIC, spectrum study. The following applies: all GN except E. brevis, M. catarrhalis, N. meningitidis. The format is cell-based. How it is done: as §1
For series [8], the system named is S. aureus. Description: MIC of S. aureus in humans (description). The series is classed as cell-based. As to conditions: Staphylococcus aureus.
The test system of series [9] is WT isolates. In words: Synergy by the checkerboard method. The format is cell-based. The following applies: FA/co-drug combination, count. How it is done: as §1
The subject of series [10] is 217 S. aureus Canadian isolates. The series is classed as cell-based. As to conditions: Canadian S. aureus isolates, comparators. The protocol: as §1

Turning to `CC(=O)O[C@H]1C[C@@]2(C)[C@@H](C[C@@H](O)[C@H]3[C@@]4(C)CC[C@@H](O)[C@@H](C)[C@@H]4CC[C@@]32C)/C1=C(\CCC=C(C)C)C(=O)O` [FA, Fusidic acid], the number of isolates inhibited is 8 µg/mL in the series on S. aureus [1] (years tested 2001-2002, read-out: No. inhibited at MIC (μg/mL) of: 0.06); 29 µg/mL in the series with S. aureus [1] (years tested 2001-2002, read-out: No. inhibited at MIC (μg/mL) of: 0.12); 1 µg/mL with S. aureus [1] (years tested 2001-2002, read-out: No. inhibited at MIC (μg/mL) of: 0.25); 2 µg/mL with S. aureus [1] (years tested 2001-2002, read-out: No. inhibited at MIC (μg/mL) of: ≧2); 6 µg/mL with S. aureus [1] (years tested 2003-2004, read-out: No. inhibited at MIC (μg/mL) of: 0.06); 33 µg/mL in the series with S. aureus [1] (years tested 2003-2004, read-out: No. inhibited at MIC (μg/mL) of: 0.12). Moreover, the number of isolates inhibited in the series with S. aureus [1] (years tested 2003-2004, read-out: No. inhibited at MIC (μg/mL) of: ≧2) came out at 3 µg/mL; with S. aureus [1] (years tested 2005-2006, read-out: No. inhibited at MIC (μg/mL) of: 0.06), 2 µg/mL; with S. aureus [1] (years tested 2005-2006, read-out: No. inhibited at MIC (μg/mL) of: 0.12), 32 µg/mL; in the series with S. aureus [1] (years tested 2005-2006, read-out: No. inhibited at MIC (μg/mL) of: 0.25) it was 2 µg/mL; in the series with S. aureus [1] (years tested 2005-2006, read-out: No. inhibited at MIC (μg/mL) of: ≧2), 5 µg/mL. Besides, the “increase in MIC results” value with WT isolates [2] (10% serum added) was found to be 4 fold. Further, the “effect of lower media pH on protein binding effects” value in the series on WT isolates [2] (medium pH 5.0-6.0) is “decreased negative protein binding effects”. Further, the protein binding in series [3] is 95-97%. For the same compound, the single-step mutational rate with WT isolates [4] (4×MIC) is on record as 1.2×10^−6; in the series with WT isolates [4] (16×MIC) it was 9.8×10^−8. Also, the “MIC values, range” value in [5] was 0.06 to 32 µg/mL. Also, in series [6], the “outcome in hollow fiber model” value is “regrowth and development of resistance by 24 h and 48 h”. Besides, the MIC in series [7] was 0.12 to 0.5 µg/mL; with GN species, not below 2 µg/mL; in the series with S. aureus [8], 2.5 µg/mL.

Turning to `Cc1onc(-c2ccccc2)c1C(=O)N[C@@H]1C(=O)N2[C@@H]1SC(C)(C)[C@@H]2C(=O)O` [Oxacillin], in the series with WT isolates [9], the Additive is recorded as 1, the Antagonism stood at 0, the Indeterminate is 1 and the Indifferent is 3. Moreover, in the series with WT isolates [9], the “Synergy: Complete” value is given as 0 and the “Synergy: Partial” value is on record as 1.

Regarding `CO[C@H]1/C=C/O[C@@]2(C)Oc3c(C)c(O)c4c(O)c(c(/C=N/N5CCN(C)CC5)c(O)c4c3C2=O)NC(=O)/C(C)=C\C=C\[C@H](C)[C@H](O)[C@@H](C)[C@@H](O)[C@@H](C)[C@H](OC(C)=O)[C@@H]1C` [Rifampin, rifampin], in the series on WT isolates [9], the Additive amounted to 1, the Antagonism is recorded as 0, the Indeterminate came to 0 and the Indifferent was 0. Besides, in the series with WT isolates [9], the “Synergy: Complete” value worked out at 0 and the “Synergy: Partial” value worked out at 5.

For `CN[C@H](CC(C)C)C(=O)N[C@H]1C(=O)N[C@@H](CC(N)=O)C(=O)N[C@H]2C(=O)N[C@H]3C(=O)N[C@H](C(=O)N[C@H](C(=O)O)c4cc(O)cc(O)c4-c4cc3ccc4O)[C@H](O)c3ccc(c(Cl)c3)Oc3cc2cc(c3O[C@@H]2O[C@H](CO)[C@@H](O)[C@H](O)[C@H]2O[C@H]2C[C@](C)(N)[C@H](O)[C@H](C)O2)Oc2ccc(cc2Cl)[C@H]1O` [Vancomycin], in the series on WT isolates [9], the Additive was 2, the Antagonism stood at 0, the Indeterminate is on record as 0 and the Indifferent came out at 4. For the same compound, in the series on WT isolates [9], the “Synergy: Complete” value is 0 and the “Synergy: Partial” value was 0.

In the case of `CCC[C@@H]1C[C@@H](C(=O)N[C@@H]([C@H]2O[C@H](SC)[C@H](O)[C@@H](O)[C@H]2O)[C@H](C)Cl)N(C)C1` [clindamycin], in the series with S. aureus [1], the R rate worked out at 28.5%. For the same compound, the resistance rates in [10] came out at 30.9%.

`CC[C@H]1OC(=O)[C@H](C)[C@@H](O[C@H]2C[C@@](C)(OC)[C@@H](O)[C@H](C)O2)[C@H](C)[C@@H](O[C@@H]2O[C@H](C)C[C@H](N(C)C)[C@H]2O)[C@](C)(O)C[C@@H](C)C(=O)[C@H](C)[C@@H](O)[C@]1(C)O` [erythromycin] had a R rate with S. aureus [1] of 52.0%. The resistance rates in series [10] is reported as 52.1%.

Turning to `C[C@H]1COc2c(N3CCN(C)CC3)c(F)cc3c(=O)c(C(=O)O)cn1c23` [levofloxacin], in the series with WT isolates [9], the Additive is on record as 0, the Antagonism is listed as 0, the Indeterminate came to 2 and the Indifferent turned out to be 4. Further, in the series on WT isolates [9], the “Synergy: Complete” value is reported as 0 and the “Synergy: Partial” value was found to be 0.

As for gentamicin, in the series with WT isolates [9], the Additive is 3, the Antagonism was 0, the Indeterminate was 0 and the Indifferent came out at 1. For the same compound, in the series on WT isolates [9], the “Synergy: Complete” value came out at 1 and the “Synergy: Partial” value is 1.
